Assay [1] relates to Puccinia recondita. Nature of the assay: Preventative control of brown rust on wheat caused by Puccinia recondita. The format is in vivo. The note with it: efficacy in % of untreated control (90% infection), read-out: Observed activity (% infection); for inhibition at 1 ppm: sprayed 1 day before inoculation. The method, then: (§1) The active compounds were prepared as a stock solution comprising 25 mg of N-(trans-2-bicycloprop-2-ylphenyl)-3-difluoromethyl-1-methyl-1H-pyrazole-4-carboxamide (Ia), which was made up to 10 ml using a mixture of acetone and/or dimethyl sulfoxide and the emulsifier Wettol® EM31 (wetting agent having an emulsifying and dispersing action based on ethoxylated alkylphenols) in a ratio by volume of solvent/emulsifier of 99:1. The mixture was then made up to 100 ml with water. This stock solution was diluted with the solvent/emulsifier/water mixture described to give the concentration of active compound stated below. Epoxiconazole and metconazole were employed as a commercial finished formulation and diluted with water to the stated concentration of active compound.
(§2) The visually determined percentages of infected leaf areas were converted into efficacies in % of the untreated control.
(§3) The efficacy (E) is calculated as follows using Abbot's formula: […]
(§4) αcorresponds to the fungicidal infection of the treated plants in % and βcorresponds to the fungicidal infection of the untreated (control) plants in %
(§5) An efficacy of 0 means that, the infection level of the treated plants corresponds to that of the untreated control plants; an efficacy of 100 means that the treated plants were not infected.
(§6) The expected efficacies of active compound combinations were determined using Colby's formula (Colby, S.R. “Calculating synergistic and antagonistic responses of herbicide combinations”, Weeds, 15, pp. 20-22, 1967) and compared with the observed efficacies.
(§7) Colby's formula: E=x+y−x•y/100 • E expected efficacy, expressed in % of the untreated control, when using the mixture of the active compounds A and B at the concentrations a and b • x efficacy, expressed in % of the untreated control, when using the active compound A at the concentration a • y efficacy, expressed in % of the untreated control, when using the active compound B at the concentration b
The first two developed leaves of pot-grown wheat seedling were sprayed to run-off with an aqueous suspension, containing the concentration of active ingredient as described below. The next day the plants were inoculated with spores of Puccinia recondita. To ensure the success the artificial inoculation, the plants were transferred to a humid chamber without light and a relative humidity of 95 to 99% and 20 to 22° C. for 24 h. Then the trial plants were cultivated for 6 days in a greenhouse chamber at 22-26° C. and a relative humidity between 65 and 70%. The extent of fungal attack on the leaves was visually assessed as % diseased leaf area.
The expected efficacies of mixtures of active compounds were determined using Colby's formula and compared with the observed efficacies.

The subject of assay [2] is Puccinia recondita. Kind of assay: Curative control of brown rust on wheat caused by Puccinia recondita. The class given is in vivo. The conditions noted are these: assessed after 8 days, efficacy in % of untreated control (90% infection), read-out: Observed activity (% infection); for inhibition at 0.25 ppm: sprayed 1 day after inoculation; for inhibition at 0.063 ppm: 192 h. The procedure: as §1, §2, §3, §4, §5, §6, §7
The first two developed leaves of pot-grown wheat seedling were dusted with spores of Puccinia recondita. To ensure the success the artificial inoculation, the plants were transferred to a humid chamber without light and a relative humidity of 95 to 99% and 20 to 22° C. for 24 h. The next day the plants were sprayed to run-off with an aqueous suspension, containing the concentration of active ingredient as described below. The plants were allowed to air-dry. Then the trial plants were cultivated for 8 days in a greenhouse chamber at 22-26° C. and a relative humidity between 65 and 70%. The extent of fungal attack on the leaves was visually assessed as % diseased leaf area. The expected efficacies of mixtures of active compounds were determined using Colby's formula and compared with the observed efficacies.

For `CC1(C)CCC(Cc2ccc(Cl)cc2)C1(O)Cn1cncn1` (centres unmarked) [metconazole], in the assay with Puccinia recondita [1] (0.063 ppm), the inhibition at 0.063 ppm was found to be 0%. For the same compound, the inhibition at 1 ppm in the assay with Puccinia recondita [1] worked out at 0%. For the same compound, the inhibition at 0.25 ppm with Puccinia recondita [2] was 44%.
For `Fc1ccc([C@]2(Cn3cncn3)O[C@H]2c2ccccc2Cl)cc1` (racemic) [epoxiconazole], in the assay with Puccinia recondita [2], the inhibition at 0.063 ppm is 22%.
`Cn1cc(C(=O)Nc2ccccc2[C@@H]2C[C@H]2C2CC2)c(C(F)F)n1` [Compound (Ia), N-(trans-2-bicycloprop-2-ylphenyl)-3-difluoromethyl-1-methyl-1H-pyrazole-4-carboxamide]: the inhibition at 0.25 ppm in the assay on Puccinia recondita [1] (0.25 ppm) and in the assay on Puccinia recondita [2] was 0% in each case. Besides, the inhibition at 1 ppm in the assay with Puccinia recondita [1] came out at 22%. For the same compound, the inhibition at 0.063 ppm with Puccinia recondita [2] was 0%.

The record behind these values is patent US20100248960A1, “Method For Protecting Cereals From Being Infected By Fungi” (BASF SE, priority 2007, published 2010).
